Data on 5 compounds can be found in ChEMBL document CHEMBL2169886 (J Med Chem, 2012).

Data set [1] in a line: clinical. The settings on record: human, plasma.
Data set [2] can be described thus: clinical. The settings on record: human, in vivo, po, 30 mg.
The species named for data set [3] is Rattus norvegicus. The settings on record: in vivo, po, BLD = below limit of detection.
Data set [4] in a line: in vivo. The settings on record: rat.
A short description of data set [5]: in vivo. The settings on record: rat, po.
A short description of data set [6]: physchem. The settings on record: buffer, pH 7.4.

On to `CS(=O)(=O)O.OCCn1cc(-c2cnc3nnn(Cc4ccc5ncccc5c4)c3n2)cn1`, for which the AUC (in general, concentration integrated over time) in data set [1] stood at 810 ng·h/mL. Also, in data set [2], the peak level (Cmax at 1.2 h) was 240 ng/mL.

Consider `N[C@@H]1CCN(c2cnc3nnn(Cc4ccc5ncccc5c4)c3n2)C1`, for which, in data set [3], the F result is on record as “BLD”. For the same compound, in data set [4], the Vd (commonly the apparent volume that relates the amount in the body to the concentration in plasma or blood) stood at 3.6 L/kg.

`c1cnc2ccc(Cn3nnc4ncc(-c5cnn(C6CCNCC6)c5)nc43)cc2c1`: the F result in data set [3] was “BLD”. Besides, the volume of distribution (Vd) in data set [4] came to 27 L/kg.

In data set [4], `Nc1cnc2nnn(Cc3ccc4ncccc4c3)c2n1` registered a Vd of 0.95 L/kg. Further, the bioavailability (as a rule, the share of a dose that reaches the circulation, judged against a reference dose that is usually intravenous) in data set [5] worked out at 75%. The logD (in general, the decadic logarithm of the distribution of all forms, ionised or not, between an organic phase and buffer at a given pH) in data set [6] turned out to be 1.23.

Take `OCCn1cc(-c2cnc3nnn(Cc4ccc5ncccc5c4)c3n2)cn1` [PF-04217903]: the Vd in data set [4] was 1.6 L/kg. Moreover, the bioavailability in data set [5] stood at 71%. In addition, in data set [6], the logD is 1.38.
